In article PMC5363571 (Oncotarget, 2016):
Structures can show the parent of a compound that is named as a salt.

What follows are compounds tested against USP7 (Homo sapiens, UniProt Q93009) (assay: biochemical). Conditions: inhibitor.
Chain of USP7 (Q93009 whole entry): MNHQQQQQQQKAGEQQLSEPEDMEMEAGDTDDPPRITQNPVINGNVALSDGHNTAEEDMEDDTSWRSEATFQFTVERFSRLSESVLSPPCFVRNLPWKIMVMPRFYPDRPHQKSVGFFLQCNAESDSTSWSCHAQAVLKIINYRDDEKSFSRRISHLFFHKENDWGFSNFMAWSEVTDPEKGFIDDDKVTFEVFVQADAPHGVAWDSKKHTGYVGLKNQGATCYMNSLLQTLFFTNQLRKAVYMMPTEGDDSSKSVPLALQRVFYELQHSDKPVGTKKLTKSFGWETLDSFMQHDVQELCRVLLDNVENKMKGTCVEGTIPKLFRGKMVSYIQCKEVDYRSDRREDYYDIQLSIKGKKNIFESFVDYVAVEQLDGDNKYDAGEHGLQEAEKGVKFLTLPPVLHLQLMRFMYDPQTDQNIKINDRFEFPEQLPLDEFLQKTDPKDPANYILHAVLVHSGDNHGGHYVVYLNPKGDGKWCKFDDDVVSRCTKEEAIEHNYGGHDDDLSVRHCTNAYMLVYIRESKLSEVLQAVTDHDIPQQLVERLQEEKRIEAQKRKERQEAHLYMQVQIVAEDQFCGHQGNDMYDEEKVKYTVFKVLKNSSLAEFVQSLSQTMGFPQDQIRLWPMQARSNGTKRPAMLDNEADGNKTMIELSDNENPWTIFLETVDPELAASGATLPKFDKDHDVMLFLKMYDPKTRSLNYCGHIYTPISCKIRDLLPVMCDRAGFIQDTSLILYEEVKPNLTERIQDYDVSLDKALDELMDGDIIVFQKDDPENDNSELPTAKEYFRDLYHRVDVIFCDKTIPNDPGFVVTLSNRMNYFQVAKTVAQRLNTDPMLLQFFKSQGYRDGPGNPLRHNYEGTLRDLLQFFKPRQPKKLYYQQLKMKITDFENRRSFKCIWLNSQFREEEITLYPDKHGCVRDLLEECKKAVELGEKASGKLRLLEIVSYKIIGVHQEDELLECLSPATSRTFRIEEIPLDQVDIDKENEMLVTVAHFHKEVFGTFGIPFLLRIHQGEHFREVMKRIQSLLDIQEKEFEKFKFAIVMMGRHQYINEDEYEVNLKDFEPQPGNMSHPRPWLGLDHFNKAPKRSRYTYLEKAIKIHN
Set-up: Ub-AMC hydrolysis by recombinant USP7 (20 nM), 30 min pre-incubation, fluorescence read-out
With `CNC(=O)Oc1ccc2c(c1)[C@]1(C)CCN(C)[C@@H]1N2C` [Physostigmine sulfate] the “% Inhibition at 50 μM” value was less than 5%.

Same assay, conditions: read-out: % Inhibition at 50 μM
`CC[C@H]1OC(=O)[C@H](C)[C@@H](O[C@H]2C[C@@](C)(OC)[C@@H](O)[C@H](C)O2)[C@H](C)[C@@H](O[C@@H]2O[C@H](C)C[C@H](N(C)C)[C@H]2O)[C@](C)(OC)C[C@@H](C)C(=O)[C@H](C)[C@@H](O)[C@]1(C)O` [Clarithromycin] gave an inhibition at 50 µM of less than 5%. `CC1=C(C)C(=O)C(CCCCC#CCCCC#CCO)=C(C)C1=O` [Docebenone] was tested, and the inhibition at 50 µM was less than 5%. In the case of `CNC(=C[N+](=O)[O-])NCCSCc1ccc(CN(C)C)o1` [Ranitidine HCl], the inhibition at 50 µM is reported as less than 5%. With `C[N+](C)(C)[C@@H](Cc1c[nH]c(=S)[nH]1)C(=O)[O-]` [Ergothioneine] the inhibition at 50 µM was less than 5%. `CC(C)COCC(CN(Cc1ccccc1)c1ccccc1)N1CCCC1` (stereo not shown) [Bepridil] showed an inhibition at 50 µM of less than 5%. With `C[C@]12Cc3c[nH]nc3C[C@@H]1CC[C@@H]1[C@@H]2CC[C@@]2(C)[C@H]1CC[C@]2(C)O` [Stanozolol] the inhibition at 50 µM was less than 5%. `CC(C)[N+]1(C)C2CCC1CC(OC(=O)C(CO)c1ccccc1)C2` (stereo not shown) [Ipratropium Br] gave an inhibition at 50 µM of less than 5%. With `CC(N/C(=N\C#N)Nc1ccncc1)C(C)(C)C` (stereo not shown) [Pinacidil] the inhibition at 50 µM was less than 5%. In the case of `CCCc1nc(C)c2c(=O)nc(-c3cc(S(=O)(=O)N4CCN(CC)CC4)ccc3OCC)[nH]n12` [Vardenafil], the inhibition at 50 µM is reported as less than 5%. With `CC(CN1c2ccccc2Sc2ccccc21)N(C)C` (stereo not shown) [Promethazine HCl] the inhibition at 50 µM was 8.9%. `Fc1ccc(C(c2ccc(F)cc2)N2CCN(C/C=C/c3ccccc3)CC2)cc1` [Flunarizine-2HCl] gave an inhibition at 50 µM of less than 5%. `CN1[C@@H]2CC[C@H]1C[C@@H](OC(=O)C(CO)c1ccccc1)C2` (stereo partly shown) [Atropine sulfate] was tested, and the inhibition at 50 µM was less than 5%. `Cc1ncc([N+](=O)[O-])n1CCO` [Metronidazole] showed an inhibition at 50 µM of less than 5%. In the case of `CS(=O)(=O)CCNCc1ccc(-c2ccc3ncnc(Nc4ccc(OCc5cccc(F)c5)c(Cl)c4)c3c2)o1` [Lapatinib], the inhibition at 50 µM is reported as less than 5%. Compound `O=C(O[C@@H]1C[C@@H]2C[C@H]3C[C@H](C1)N2CC3=O)c1c[nH]c2ccccc12` [Dolasetron] has an inhibition at 50 µM of less than 5%. `CC(C)(C)NCC(O)c1ccccc1Cl` (stereo not shown) [Tulobuterol] was tested, and the inhibition at 50 µM was 16.5%. `C[C@@H](O[C@H]1OCCN(Cc2n[nH]c(=O)[nH]2)[C@H]1c1ccc(F)cc1)c1cc(C(F)(F)F)cc(C(F)(F)F)c1` [Aprepitant] showed an inhibition at 50 µM of less than 5%. `NCCCC(O)(P(=O)(O)O)P(=O)(O)O` [Alendronate] showed an inhibition at 50 µM of less than 5%. `CN1CCN(CC(=O)N2c3ccccc3C(=O)Nc3cccnc32)CC1` [Pirenzepine 2HCl] was tested, and the inhibition at 50 µM was less than 5%. With `COc1cc(-c2ccc(=O)[nH]n2)ccc1OC(F)F` [Zardaverine] the inhibition at 50 µM was less than 5%. In the case of `COC(=O)CCc1ccc(OCC(O)CNC(C)C)cc1` (stereo not shown) [Esmolol], the inhibition at 50 µM is reported as less than 5%. `CN/C(=N\CCSCc1nc[nH]c1C)NC#N` [Cimetidine] showed an inhibition at 50 µM of less than 5%. Compound `O=C(CCCCCCC(=O)Nc1ccccc1)NO` [Vorinostat] has an inhibition at 50 µM of less than 5%. For `CSc1ccc2c(c1)N(CCC1CCCCN1C)c1ccccc1S2` (stereo not shown) [Thioridazine HCl], the inhibition at 50 µM was less than 5%. `O=C(C1CCCCC1)N1CC(=O)N2CCc3ccccc3C2C1` (stereo not shown) [Praziquantel] was tested, and the inhibition at 50 µM was less than 5%. `NCCCC[C@H](N[C@@H](CCc1ccccc1)C(=O)O)C(=O)N1CCC[C@H]1C(=O)O` [Lisinopril] was tested, and the inhibition at 50 µM was 30.5%. For `CN(C/C=C/C#CC(C)(C)C)Cc1cccc2ccccc12` [Terbinafine HCl], the inhibition at 50 µM was 8.6%. In the case of `C[C@H]1[C@H](OC(=O)CCC(=O)O)O[C@@H]2O[C@@]3(C)CC[C@H]4[C@H](C)CC[C@@H]1[C@@]24OO3` [Artesunate], the inhibition at 50 µM is reported as less than 5%. Compound `CN(Cc1ccc(C(C)(C)C)cc1)Cc1cccc2ccccc12` [Butenafine] has an inhibition at 50 µM of 24.9%. Compound `C[N+](C)(C)CCOC(=O)CCC(=O)OCC[N+](C)(C)C` [Succinylcholine] has an inhibition at 50 µM of less than 5%. In the case of `CCN(CC)CCNC(=O)c1cc(Cl)c(N)cc1OC` [Metoclopramide HCl], the inhibition at 50 µM is reported as less than 5%. `CCCCCCCCCCCCCCCCOP(=O)([O-])OCC[N+](C)(C)C` [Miltefosine] showed an inhibition at 50 µM of 6.5%. Work on `Cc1c(C)c2c(c(C)c1O)CCC(C)(COc1ccc(CC3SC(=O)NC3=O)cc1)O2` (stereo not shown) [Troglitazone] yielded an inhibition at 50 µM of 5.3%. With `C=C(C)[C@@H]1CC[C@]2(C(=O)O)CC[C@]3(C)[C@H](CC[C@@H]4[C@@]5(C)CC[C@H](O)C(C)(C)[C@@H]5CC[C@]43C)[C@@H]12` [Betulinic acid] the inhibition at 50 µM was 25.8%. For `CN1[C@@H](CC(=O)c2ccccc2)CCC[C@H]1C[C@H](O)c1ccccc1` [Lobeline], the inhibition at 50 µM was less than 5%. Compound `CCCCC(C#N)(Cn1cncn1)c1ccc(Cl)cc1` (stereo not shown) [Myclobutanil] has an inhibition at 50 µM of less than 5%. `CCOC(=O)[C@H](CCc1ccccc1)N[C@@H](C)C(=O)N1Cc2ccccc2C[C@H]1C(=O)O` [Quinapril HCl] was tested, and the inhibition at 50 µM was less than 5%. Compound `OCCN1CCN(CCCN2c3ccccc3Sc3ccc(C(F)(F)F)cc32)CC1` [Fluphenazine 2HCl] has an inhibition at 50 µM of less than 5%. `O=c1[nH]c2ccccc2n1CCCN1CCC(n2c(=O)[nH]c3cc(Cl)ccc32)CC1` [Domperidone] was tested, and the inhibition at 50 µM was less than 5%. `C#C[C@]1(O)CC[C@H]2[C@@H]3CCC4=CC(=O)CC[C@@H]4[C@H]3CC[C@@]21CC` [Levonorgestrel] showed an inhibition at 50 µM of less than 5%. In the case of `COC(=O)C1=C(C)NC(C)=C(C(=O)OCCN2CCN(C(c3ccccc3)c3ccccc3)CC2)C1c1cccc([N+](=O)[O-])c1` (stereo not shown) [Manidipine], the inhibition at 50 µM is reported as less than 5%. In the case of `CS(=O)(=O)Nc1ccc([N+](=O)[O-])cc1Oc1ccccc1` [Nimesulide], the inhibition at 50 µM is reported as less than 5%. Work on `CCCCC[C@H](O)/C=C/[C@H]1[C@H](O)CC(=O)[C@@H]1C/C=C\CCCC(=O)O` [Dinoprostone] yielded an inhibition at 50 µM of 6.5%. In the case of `O=C(O)COC(=O)Cc1ccccc1Nc1c(Cl)cccc1Cl` [Aceclofenac], the inhibition at 50 µM is reported as less than 5%. `O=C1C[C@@H]2OCC=C3CN4CC[C@]56c7ccccc7N1[C@H]5[C@H]2[C@H]3C[C@H]46` [Strychnine HCl] gave an inhibition at 50 µM of less than 5%. With `Nc1nc2ccc(OC(F)(F)F)cc2s1` [Riluzole HCl] the inhibition at 50 µM was less than 5%. For `COc1cccc2c1C(=O)c1c(O)c3c(c(O)c1C2=O)C[C@@](O)(C(=O)CO)C[C@@H]3O[C@H]1C[C@H](N)[C@H](O)[C@H](C)O1` [Doxorubicin HCl], the inhibition at 50 µM was less than 5%. In the case of `CN1CCN2c3ccccc3Cc3ccccc3C2C1` (stereo not shown) [Mianserin hcl], the inhibition at 50 µM is reported as 21.3%. `CCCCn1c(=O)c2c(ncn2CC(C)=O)n(CCCC)c1=O` [Denbufylline] was tested, and the inhibition at 50 µM was less than 5%. `CN1[C@@H]2C[C@@H](OC(=O)[C@H](CO)c3ccccc3)C[C@H]1[C@@H]1O[C@@H]12` [Scopolamine HBr] gave an inhibition at 50 µM of less than 5%. `Cc1cccc(Nc2ccccc2C(=O)O)c1C` [Mefenamic acid] gave an inhibition at 50 µM of less than 5%. Work on `CC(C)(Oc1ccc(CCNC(=O)c2ccc(Cl)cc2)cc1)C(=O)O` [Bezafibrate] yielded an inhibition at 50 µM of less than 5%. Work on `O=C(O)Cc1ccccc1Nc1c(Cl)cccc1Cl` [Diclofenac, Na] yielded an inhibition at 50 µM of less than 5%. `N=c1ccn2c(n1)O[C@H]1[C@H](O)[C@@H](CO)O[C@H]12` [Cyclocytidine HCl] was tested, and the inhibition at 50 µM was 29.5%. In the case of `CNCCC(Oc1ccccc1OC)c1ccccc1` (stereo not shown) [Nisoxetine HCl], the inhibition at 50 µM is reported as less than 5%. Compound `C[C@]12CC[C@H](O)CC1=CC[C@@H]1[C@@H]2CC[C@]2(C)C(=O)CC[C@@H]12` [Dehydroepiandrosterone] has an inhibition at 50 µM of less than 5%. `CCOC(=O)C1=C(C)NC(C)=C(C(=O)OC)C1c1cccc(Cl)c1Cl` (stereo not shown) [Felodipine] showed an inhibition at 50 µM of 7.9%. Compound `CC1CNc2c(cccc2S(=O)(=O)N[C@@H](CCCNC(=N)N)C(=O)N2CC[C@@H](C)C[C@@H]2C(=O)O)C1` (stereo partly shown) [Argatroban] has an inhibition at 50 µM of less than 5%. With `CCCCN1C[C@H](O)[C@@H](O)[C@H](O)[C@H]1CO` [Miglustat] the inhibition at 50 µM was less than 5%. In the case of `Cc1cnc(C(=O)O)c[n+]1[O-]` [Acipimox], the inhibition at 50 µM is reported as less than 5%. Work on `CC(=O)[C@]1(O)Cc2c(O)c3c(c(O)c2[C@@H](O[C@H]2C[C@H](N)[C@H](O)[C@H](C)O2)C1)C(=O)c1ccccc1C3=O` [Idarubicin] yielded an inhibition at 50 µM of less than 5%. In the case of `CN(CCOc1ccc(NS(C)(=O)=O)cc1)CCc1ccc(NS(C)(=O)=O)cc1` [Dofetilide], the inhibition at 50 µM is reported as less than 5%. `CC(C)NCC(O)c1ccc(O)c(O)c1` (racemic) [Isoproterenol HCl (rac)] showed an inhibition at 50 µM of less than 5%. Compound `COc1ccc(C(=O)N2CCCC2=O)cc1` [Aniracetam] has an inhibition at 50 µM of less than 5%. With `Cc1nc2n(c(=O)c1CCN1CCC(c3noc4cc(F)ccc34)CC1)CCCC2` [Risperidone] the inhibition at 50 µM was less than 5%. Work on `CCN1CCC[C@H]1CNC(=O)c1cc(S(N)(=O)=O)ccc1OC` [Sulpiride s (-)] yielded an inhibition at 50 µM of less than 5%. `CC(C)(O)c1ccccc1CC[C@@H](SCC1(CC(=O)O)CC1)c1cccc(/C=C/c2ccc3ccc(Cl)cc3n2)c1` [Montelukast] showed an inhibition at 50 µM of 76.3%. In the case of `COc1ccc(C(=O)NCc2cccnc2)cc1C(=O)NCc1cccnc1` [Picotamide], the inhibition at 50 µM is reported as less than 5%. `CCCCC[C@H](O)/C=C/[C@@H]1[C@@H](C/C=C\CCCC(=O)O)[C@@H](O)C[C@H]1O` [Dinoprost] showed an inhibition at 50 µM of less than 5%. For `CCCCc1ncc(/C=C(\Cc2cccs2)C(=O)O)n1Cc1ccc(C(=O)O)cc1` [Eprosartan], the inhibition at 50 µM was 6.2%. For `C=CCc1ccccc1OCC(O)CNC(C)C` (stereo not shown) [Alprenolol HCl], the inhibition at 50 µM was less than 5%. `CCn1cc(C(=O)O)c(=O)c2cc(F)c(N3CCNC(C)C3)c(F)c21` (stereo not shown) [Lomefloxacin HCl] was tested, and the inhibition at 50 µM was 8.6%. In the case of `COC1=C(OC)C(=O)C(CCCCCCCCCCO)=C(C)C1=O` [Idebenone], the inhibition at 50 µM is reported as less than 5%. Compound `CC/C(=C(/CC)c1ccc(O)cc1)c1ccc(O)cc1` [Diethylstilbestrol] has an inhibition at 50 µM of 30.6%. With `O=C(O)Cc1ccccc1` [Sodium phenylacetate] the inhibition at 50 µM was less than 5%. In the case of `C[C@H]1COc2c(N3CCN(C)CC3)c(F)cc3c(=O)c(C(=O)O)cn1c23` [Levofloxacin HCl], the inhibition at 50 µM is reported as less than 5%. In the case of `CN1C[C@@H](NS(=O)(=O)N(C)C)C[C@@H]2c3cccc4c3c(cn4C)C[C@H]21` [Mesulergine HCl], the inhibition at 50 µM is reported as less than 5%. For `CC1(C)[C@@H](O)CC[C@]2(C)[C@H]3C(=O)C=C4[C@@H]5C[C@@](C)(C(=O)O)CC[C@]5(C)CC[C@@]4(C)[C@]3(C)CC[C@@H]12` [Glycyrrhetic acid], the inhibition at 50 µM was less than 5%.
